Assay results taken from ChEMBL document CHEMBL5442741, “ASAP - In vitro kinase profile” (2024).
Several values for one entry are separate records, joined by “and”; a condition that tells them apart may be missing. Equal values may be shown once.

Key:
[1] = target: Serine/threonine-protein kinase PLK3 (Homo sapiens) (UniProt Q9H4B4); experiment: Enzymatic radiometric [Km ATP] KinaseProfiler LeadHunter assay, kinase: Plk3, catalogue number: 14-572KP The assay has been performed by Eurofins Discovery.; settings: ATP concentration 70.0 uM, Test compound concentration 10.0 uM
[2] = target: cAMP-dependent protein kinase catalytic subunit alpha (Homo sapiens) (UniProt P17612); experiment: Enzymatic radiometric [Km ATP] KinaseProfiler LeadHunter assay, kinase: PKA, catalogue number: 14-440KP The assay has been performed by Eurofins Discovery.; settings: ATP concentration 10.0 uM, Test compound concentration 10.0 uM
[3] = target: Mitogen-activated protein kinase 14 (Homo sapiens) (UniProt Q16539); experiment: Enzymatic radiometric [Km ATP] KinaseProfiler LeadHunter assay, kinase: SAPK2a, catalogue number: 14-251KP The assay has been performed by Eurofins Discovery.; settings: ATP concentration 90.0 uM, Test compound concentration 10.0 uM
Chain of Mitogen-activated protein kinase 14 (Homo sapiens) (Q16539 whole entry): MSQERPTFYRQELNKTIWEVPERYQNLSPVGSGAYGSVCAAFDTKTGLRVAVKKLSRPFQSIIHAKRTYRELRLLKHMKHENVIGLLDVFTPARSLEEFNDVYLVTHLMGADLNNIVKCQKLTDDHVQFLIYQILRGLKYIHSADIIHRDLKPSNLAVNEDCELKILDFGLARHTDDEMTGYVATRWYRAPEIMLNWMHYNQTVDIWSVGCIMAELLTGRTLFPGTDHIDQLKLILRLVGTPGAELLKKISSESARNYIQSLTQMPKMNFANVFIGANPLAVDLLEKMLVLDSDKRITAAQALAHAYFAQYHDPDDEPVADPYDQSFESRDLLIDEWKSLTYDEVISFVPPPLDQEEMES

[4] = target: Mitogen-activated protein kinase kinase kinase 9 (Homo sapiens) (UniProt P80192); experiment: Enzymatic radiometric [Km ATP] KinaseProfiler LeadHunter assay, kinase: MLK1, catalogue number: 14-690KP The assay has been performed by Eurofins Discovery.; settings: ATP concentration 45.0 uM, Test compound concentration 10.0 uM
Chain of Mitogen-activated protein kinase kinase kinase 9 (Homo sapiens) (P80192 whole entry, looked up): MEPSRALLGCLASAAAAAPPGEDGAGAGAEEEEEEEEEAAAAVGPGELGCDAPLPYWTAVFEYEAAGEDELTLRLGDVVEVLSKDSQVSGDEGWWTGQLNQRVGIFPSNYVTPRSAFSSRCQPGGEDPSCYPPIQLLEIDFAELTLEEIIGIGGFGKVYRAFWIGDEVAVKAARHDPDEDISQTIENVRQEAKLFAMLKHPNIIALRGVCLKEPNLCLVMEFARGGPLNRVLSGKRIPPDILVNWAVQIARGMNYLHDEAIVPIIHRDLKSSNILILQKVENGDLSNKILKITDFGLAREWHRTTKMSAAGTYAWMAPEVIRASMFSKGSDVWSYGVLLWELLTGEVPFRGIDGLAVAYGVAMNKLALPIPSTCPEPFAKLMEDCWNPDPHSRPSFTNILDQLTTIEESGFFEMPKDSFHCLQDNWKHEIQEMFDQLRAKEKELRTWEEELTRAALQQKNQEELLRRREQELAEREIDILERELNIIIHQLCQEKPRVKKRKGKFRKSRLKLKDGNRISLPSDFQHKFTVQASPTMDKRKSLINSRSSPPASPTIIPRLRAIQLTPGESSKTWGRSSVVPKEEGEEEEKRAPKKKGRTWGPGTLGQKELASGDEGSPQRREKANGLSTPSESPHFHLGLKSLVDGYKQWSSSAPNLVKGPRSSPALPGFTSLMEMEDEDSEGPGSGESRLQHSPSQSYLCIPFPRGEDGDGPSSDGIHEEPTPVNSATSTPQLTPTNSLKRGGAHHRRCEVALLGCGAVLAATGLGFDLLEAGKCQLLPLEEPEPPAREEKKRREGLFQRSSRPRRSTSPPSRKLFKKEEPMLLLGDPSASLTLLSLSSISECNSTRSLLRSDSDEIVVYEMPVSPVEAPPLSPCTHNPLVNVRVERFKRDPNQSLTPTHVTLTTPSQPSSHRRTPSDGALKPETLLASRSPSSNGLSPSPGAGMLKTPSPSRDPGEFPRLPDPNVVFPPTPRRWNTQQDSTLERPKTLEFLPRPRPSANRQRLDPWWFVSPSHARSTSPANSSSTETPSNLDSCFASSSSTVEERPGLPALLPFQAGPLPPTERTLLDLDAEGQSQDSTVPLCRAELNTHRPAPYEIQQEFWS

[5] = target: T1, Inhibitor of nuclear factor kappa-B kinase subunit alpha (Homo sapiens) (UniProt O15111); experiment: Enzymatic radiometric [Km ATP] KinaseProfiler LeadHunter assay, kinase: IKK-alpha, catalogue number: 14-461KP The assay has been performed by Eurofins Discovery.; settings: ATP concentration 10.0 uM, Test compound concentration 10.0 uM
T1 sequence (whole entry): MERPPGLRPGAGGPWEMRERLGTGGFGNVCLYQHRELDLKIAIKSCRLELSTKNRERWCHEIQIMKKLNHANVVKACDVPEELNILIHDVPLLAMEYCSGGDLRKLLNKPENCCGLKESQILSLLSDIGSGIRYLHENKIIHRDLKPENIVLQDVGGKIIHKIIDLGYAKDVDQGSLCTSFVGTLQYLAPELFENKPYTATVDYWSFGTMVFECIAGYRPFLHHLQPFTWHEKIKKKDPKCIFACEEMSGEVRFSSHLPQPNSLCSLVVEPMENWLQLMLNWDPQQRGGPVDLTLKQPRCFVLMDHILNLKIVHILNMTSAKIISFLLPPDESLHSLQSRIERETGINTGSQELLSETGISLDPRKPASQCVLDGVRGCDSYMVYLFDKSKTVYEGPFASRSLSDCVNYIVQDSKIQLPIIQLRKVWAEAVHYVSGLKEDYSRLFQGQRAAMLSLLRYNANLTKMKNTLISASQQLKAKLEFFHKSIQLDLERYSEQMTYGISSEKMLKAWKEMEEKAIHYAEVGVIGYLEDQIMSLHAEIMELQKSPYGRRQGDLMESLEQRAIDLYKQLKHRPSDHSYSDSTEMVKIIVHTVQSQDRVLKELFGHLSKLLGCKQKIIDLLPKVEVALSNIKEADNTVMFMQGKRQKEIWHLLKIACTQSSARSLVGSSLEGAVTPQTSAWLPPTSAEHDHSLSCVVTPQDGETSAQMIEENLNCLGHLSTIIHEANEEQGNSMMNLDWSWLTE

[6] = target: Dual specificity mitogen-activated protein kinase kinase 1 (Homo sapiens) (UniProt Q02750); experiment: Enzymatic radiometric [Km ATP] KinaseProfiler LeadHunter assay, kinase: MEK1, catalogue number: 14-429KP The assay has been performed by Eurofins Discovery.; settings: ATP concentration 10.0 uM, Test compound concentration 10.0 uM
Chain of Dual specificity mitogen-activated protein kinase kinase 1 (Homo sapiens) (Q02750 whole entry): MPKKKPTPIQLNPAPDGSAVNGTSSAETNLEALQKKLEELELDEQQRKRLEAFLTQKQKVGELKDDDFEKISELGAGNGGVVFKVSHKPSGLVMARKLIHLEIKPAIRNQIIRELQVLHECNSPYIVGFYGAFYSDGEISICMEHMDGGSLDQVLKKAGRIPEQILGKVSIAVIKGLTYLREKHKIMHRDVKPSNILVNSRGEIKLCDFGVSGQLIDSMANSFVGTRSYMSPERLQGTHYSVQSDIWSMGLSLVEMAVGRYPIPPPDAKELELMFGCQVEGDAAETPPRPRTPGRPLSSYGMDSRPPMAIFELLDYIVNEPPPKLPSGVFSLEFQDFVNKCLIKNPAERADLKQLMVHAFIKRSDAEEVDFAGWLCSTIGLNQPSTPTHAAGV

[7] = target: Rho-associated protein kinase 1 (Homo sapiens) (UniProt Q13464); experiment: Enzymatic radiometric [Km ATP] KinaseProfiler LeadHunter assay, kinase: ROCK-I, catalogue number: 14-601KP The assay has been performed by Eurofins Discovery.; settings: ATP concentration 70.0 uM, Test compound concentration 10.0 uM
Chain of Rho-associated protein kinase 1 (Homo sapiens) (Q13464 2-1354 limits assumed): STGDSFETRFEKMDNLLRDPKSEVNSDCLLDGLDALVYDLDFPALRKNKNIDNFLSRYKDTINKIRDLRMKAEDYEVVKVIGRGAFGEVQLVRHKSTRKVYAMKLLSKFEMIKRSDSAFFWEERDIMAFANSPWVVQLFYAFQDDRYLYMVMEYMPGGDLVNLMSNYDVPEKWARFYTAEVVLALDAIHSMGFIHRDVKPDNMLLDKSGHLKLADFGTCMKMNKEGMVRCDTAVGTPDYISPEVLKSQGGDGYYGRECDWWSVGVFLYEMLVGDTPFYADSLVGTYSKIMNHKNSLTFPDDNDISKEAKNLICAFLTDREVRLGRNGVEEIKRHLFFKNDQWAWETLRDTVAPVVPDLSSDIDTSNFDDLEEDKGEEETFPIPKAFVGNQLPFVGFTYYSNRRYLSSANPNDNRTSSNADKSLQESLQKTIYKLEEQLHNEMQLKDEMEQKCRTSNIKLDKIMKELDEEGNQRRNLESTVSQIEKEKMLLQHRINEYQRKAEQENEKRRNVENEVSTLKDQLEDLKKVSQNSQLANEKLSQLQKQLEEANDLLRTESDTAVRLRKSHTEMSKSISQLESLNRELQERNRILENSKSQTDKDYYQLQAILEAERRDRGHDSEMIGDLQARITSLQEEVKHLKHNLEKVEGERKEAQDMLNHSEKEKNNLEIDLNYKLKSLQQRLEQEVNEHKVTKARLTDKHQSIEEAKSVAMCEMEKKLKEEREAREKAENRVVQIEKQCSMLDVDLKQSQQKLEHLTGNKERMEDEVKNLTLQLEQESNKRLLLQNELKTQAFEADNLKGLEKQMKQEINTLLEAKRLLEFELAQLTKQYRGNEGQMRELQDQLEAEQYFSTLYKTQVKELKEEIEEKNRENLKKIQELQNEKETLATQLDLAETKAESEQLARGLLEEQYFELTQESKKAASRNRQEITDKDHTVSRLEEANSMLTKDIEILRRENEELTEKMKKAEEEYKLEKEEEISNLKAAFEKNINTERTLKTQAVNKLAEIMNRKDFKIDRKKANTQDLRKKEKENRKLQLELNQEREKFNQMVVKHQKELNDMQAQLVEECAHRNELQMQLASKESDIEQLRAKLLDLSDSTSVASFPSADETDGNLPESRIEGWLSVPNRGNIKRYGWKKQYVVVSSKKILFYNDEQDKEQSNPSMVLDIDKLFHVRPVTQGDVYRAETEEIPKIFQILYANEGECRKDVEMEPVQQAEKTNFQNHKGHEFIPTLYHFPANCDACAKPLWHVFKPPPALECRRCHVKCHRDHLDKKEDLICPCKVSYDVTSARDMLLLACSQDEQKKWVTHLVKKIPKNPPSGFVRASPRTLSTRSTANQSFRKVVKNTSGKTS

[8] = target: T2, Serine/threonine-protein kinase Chk1 (Homo sapiens) (UniProt O14757); experiment: Enzymatic radiometric [Km ATP] KinaseProfiler LeadHunter assay, kinase: CHK1, catalogue number: 14-346KP The assay has been performed by Eurofins Discovery.; settings: ATP concentration 90.0 uM, Test compound concentration 10.0 uM
T2 sequence (whole entry): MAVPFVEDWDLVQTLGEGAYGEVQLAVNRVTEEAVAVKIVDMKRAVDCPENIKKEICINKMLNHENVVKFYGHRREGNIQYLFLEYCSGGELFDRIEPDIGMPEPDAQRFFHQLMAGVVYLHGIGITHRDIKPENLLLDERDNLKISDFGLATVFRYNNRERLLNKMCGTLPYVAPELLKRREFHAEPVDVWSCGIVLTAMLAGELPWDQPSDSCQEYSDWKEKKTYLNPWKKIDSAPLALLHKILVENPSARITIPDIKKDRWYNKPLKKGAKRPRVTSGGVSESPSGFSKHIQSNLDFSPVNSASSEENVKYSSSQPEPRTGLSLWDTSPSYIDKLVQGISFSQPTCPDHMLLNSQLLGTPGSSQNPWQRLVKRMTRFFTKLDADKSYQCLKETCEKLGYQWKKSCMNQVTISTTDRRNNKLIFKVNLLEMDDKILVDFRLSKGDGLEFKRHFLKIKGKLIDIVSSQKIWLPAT

[9] = target: RAF proto-oncogene serine/threonine-protein kinase (Homo sapiens) (UniProt P04049); experiment: Enzymatic radiometric [Km ATP] KinaseProfiler LeadHunter assay, kinase: c-RAF, catalogue number: 14-352KP The assay has been performed by Eurofins Discovery.; settings: ATP concentration 120.0 uM, Test compound concentration 10.0 uM
Chain of RAF proto-oncogene serine/threonine-protein kinase (Homo sapiens) (P04049 whole entry): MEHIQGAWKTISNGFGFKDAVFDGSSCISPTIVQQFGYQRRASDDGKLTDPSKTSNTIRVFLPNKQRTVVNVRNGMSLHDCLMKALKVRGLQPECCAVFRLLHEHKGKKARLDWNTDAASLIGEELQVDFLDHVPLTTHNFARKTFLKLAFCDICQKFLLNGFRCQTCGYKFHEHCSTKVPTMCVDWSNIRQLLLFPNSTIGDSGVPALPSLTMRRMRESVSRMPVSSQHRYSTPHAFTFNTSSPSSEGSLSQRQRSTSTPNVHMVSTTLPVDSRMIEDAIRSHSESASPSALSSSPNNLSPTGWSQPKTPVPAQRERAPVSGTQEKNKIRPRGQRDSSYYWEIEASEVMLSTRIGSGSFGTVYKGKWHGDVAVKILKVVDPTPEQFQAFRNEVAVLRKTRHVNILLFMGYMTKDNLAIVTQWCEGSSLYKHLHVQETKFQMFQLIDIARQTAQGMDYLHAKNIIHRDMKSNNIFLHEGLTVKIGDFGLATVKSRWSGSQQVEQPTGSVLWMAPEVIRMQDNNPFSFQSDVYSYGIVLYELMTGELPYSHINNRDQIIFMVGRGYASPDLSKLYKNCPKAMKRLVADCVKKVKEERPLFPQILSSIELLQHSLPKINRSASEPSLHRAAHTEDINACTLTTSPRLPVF

[10] = target: Ribosomal protein S6 kinase alpha-4 (Homo sapiens) (UniProt O75676); experiment: Enzymatic radiometric [Km ATP] KinaseProfiler LeadHunter assay, kinase: MSK2, catalogue number: 14-616KP The assay has been performed by Eurofins Discovery.; settings: ATP concentration 45.0 uM, Test compound concentration 10.0 uM
Chain of Ribosomal protein S6 kinase alpha-4 (Homo sapiens) (O75676 whole entry, looked up): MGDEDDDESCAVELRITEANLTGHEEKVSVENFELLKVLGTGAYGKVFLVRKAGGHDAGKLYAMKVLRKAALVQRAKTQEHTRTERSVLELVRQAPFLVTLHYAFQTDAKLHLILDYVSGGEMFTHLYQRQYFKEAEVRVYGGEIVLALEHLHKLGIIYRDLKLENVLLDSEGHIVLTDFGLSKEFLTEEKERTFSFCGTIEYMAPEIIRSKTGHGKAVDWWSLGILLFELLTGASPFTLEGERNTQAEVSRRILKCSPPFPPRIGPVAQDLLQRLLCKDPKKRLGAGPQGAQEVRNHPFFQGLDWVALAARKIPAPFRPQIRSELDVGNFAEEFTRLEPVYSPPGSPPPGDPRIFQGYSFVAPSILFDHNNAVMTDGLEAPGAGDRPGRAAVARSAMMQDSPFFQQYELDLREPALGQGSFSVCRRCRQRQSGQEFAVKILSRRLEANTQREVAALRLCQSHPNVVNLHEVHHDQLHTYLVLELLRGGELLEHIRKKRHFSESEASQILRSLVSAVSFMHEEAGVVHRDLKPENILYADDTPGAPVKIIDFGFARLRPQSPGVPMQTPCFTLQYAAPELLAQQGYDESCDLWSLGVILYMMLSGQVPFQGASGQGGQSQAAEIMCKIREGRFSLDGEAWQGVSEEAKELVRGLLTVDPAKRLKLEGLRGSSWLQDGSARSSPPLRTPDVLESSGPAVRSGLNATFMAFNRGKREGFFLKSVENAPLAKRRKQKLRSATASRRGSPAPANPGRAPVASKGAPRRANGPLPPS

[11] = target: T3, Serine/threonine-protein kinase Nek2 (Homo sapiens) (UniProt P51955); experiment: Enzymatic radiometric [Km ATP] KinaseProfiler LeadHunter assay, kinase: NEK2, catalogue number: 14-545KP The assay has been performed by Eurofins Discovery.; settings: ATP concentration 120.0 uM, Test compound concentration 10.0 uM
T3 sequence (whole entry): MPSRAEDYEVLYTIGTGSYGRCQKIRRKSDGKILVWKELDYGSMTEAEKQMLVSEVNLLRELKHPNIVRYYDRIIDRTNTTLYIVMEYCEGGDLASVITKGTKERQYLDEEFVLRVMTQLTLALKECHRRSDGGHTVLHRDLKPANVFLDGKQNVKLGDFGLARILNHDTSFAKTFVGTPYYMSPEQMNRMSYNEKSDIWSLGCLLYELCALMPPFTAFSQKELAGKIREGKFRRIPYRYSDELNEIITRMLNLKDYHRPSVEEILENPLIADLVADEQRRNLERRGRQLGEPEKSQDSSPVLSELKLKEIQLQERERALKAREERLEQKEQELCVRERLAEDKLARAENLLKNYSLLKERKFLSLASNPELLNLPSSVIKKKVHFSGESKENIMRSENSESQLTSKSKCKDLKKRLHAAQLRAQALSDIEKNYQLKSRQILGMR

Compound	Activity [1]	Activity [2]	Activity [3]	Activity [4]	Activity [5]	Activity [6]	Activity [7]	Activity [8]	Activity [9]	Activity [10]	Activity [11]
CC(C)[C@@H](Nc1ncnc2[nH]ccc12)c1ccc2c(c1)S(=O)(=O)CCC2	103%	98%	108%	81%	91%	97%	110%	84%	97%	99%	118%
CC(C)[C@@H](Nc1ncnc2[nH]c(C(=O)N[C@@H]3CCN(C)C3)cc12)c1ccc2c(c1)S(=O)(=O)CCC2	98%	89%	97%	96%	82%	107%	98%	118%	105%	93%	118%
C[C@H](C(=O)O)[C@@H](NC(=O)c1ncnc2[nH]ccc12)c1ccc(Br)cc1	98%	87%	103%	86%	99%	89%	90%	99%	108%	90%	101%
COc1ccc([C@@H](Cc2nnn[nH]2)NC(=O)c2ncnc3[nH]ccc23)cc1	102%	105%	100%	85%	99%	92%	93%	95%	90%	92%	100%
CC(C)[C@@H](Nc1ncnc2[nH]c(-c3cnn(C)c3C#N)cc12)c1ccc2c(n1)OCCO2	90% and 89%	92% and 93%	103% and 101%	81% and 82%	111% and 104%	99% and 103%	93% and 107%	108% and 120%	81% and 90%	103% and 122%	94% and 76%
Cn1ncc(-c2cc3c(N[C@@H](c4ccc5c(n4)OCCO5)C(C)(C)C)ncnc3[nH]2)c1C#N	77%	95%	106%	94%	125%	98%	129%	125%	87%	122%	104%
CC(C)[C@H](Nc1ncnc2[nH]c(-c3cnn(C)c3C#N)cc12)c1ccc2c(n1)OCCO2	102%	82%	99%	73%	120%	97%	115%	119%	97%	114%	105%
COc1ccc([C@H](Cc2nnn[nH]2)NC(=O)c2ncnc3[nH]ccc23)cc1	102%	88%	103%	87%	98%	100%	103%	110%	103%	103%	106%

Other lines, results leading:

Activity [1]	Activity [2]	Activity [3]	Activity [4]	Activity [5]	Activity [6]	Activity [7]	Activity [8]	Activity [9]	Activity [10]	Activity [11]	Compound
104%	95%	98%	79%	94%	99%	103%	102%	93%	105%	98%	Cc1nn(C)cc1-c1cc2c(N[C@H](c3ccc4c(c3)S(=O)(=O)CCC4)C(C)C)ncnc2[nH]1
112%	89%	107%	84%	92%	94%	115%	110%	107%	92%	109%	CC(C)[C@H](Nc1ncnc2[nH]ccc12)c1ccc2c(c1)S(=O)(=O)CCC2
98%	99%	103%	89%	84%	97%	104%	107%	102%	92%	114%	CNC(=O)Cn1cc(-c2cc3c(N[C@@H](c4ccc5c(c4)S(=O)(=O)CCC5)C(C)C)ncnc3[nH]2)cn1
124%	96%	97%	86%	79%	97%	102%	111%	100%	91%	105%	CNCc1cc(-c2cc3c(N[C@@H](c4ccc5c(c4)S(=O)(=O)CCC5)C(C)C)ncnc3[nH]2)co1
